Data set [1] can be described thus: in vivo. Particulars: Sprague-Dawley, rat, iv, 1 mg/kg.
A short description of data set [2]: in vivo. Particulars: Sprague-Dawley, rat, iv, 1 mg/kg. The source holds these as a separate data set.
The nature of data set [3]: in vivo. Particulars: Sprague-Dawley, rat, iv, 1 mg/kg. The source holds these as a separate data set.
A short description of data set [4]: in vivo. As to conditions: Sprague-Dawley, rat, po, 5 mg/kg.
A short description of data set [5]: in vivo. As to conditions: Sprague-Dawley, rat, po, 5 mg/kg. The source holds these as a separate data set.
A short description of data set [6]: in vivo. As to conditions: Sprague-Dawley, rat, po, 5 mg/kg. This is another data set of the same source.
The nature of data set [7]: in vivo. Particulars: Sprague-Dawley, rat, po, 5 mg/kg. The source holds these as a separate data set.
Data set [8] in a line: Cmax in ICR mouse plasma at 14.5 mg/kg, po administered as single dose by LC-MS/MS analysis. The arrangement: dose 14.5 mg/kg, route oral. The format is ADME, organism-based.
Data set [9] can be described thus: Plasma concentration in ICR mouse at 14.5 mg/kg, po administered as single dose measured at 2 hrs by LC-MS/MS analysis. The format is ADME, organism-based.
Data set [10] can be described thus: Plasma concentration in ICR mouse at 14.5 mg/kg, po administered as single dose measured at 4 hrs by LC-MS/MS analysis. The format is ADME, organism-based.
The nature of data set [11]: Plasma concentration in ICR mouse at 2.2 mg/kg, po administered as single dose measured at 0.5 hrs by LC-MS/MS analysis. It counts as ADME, organism-based.
Data set [12] can be described thus: Plasma concentration in ICR mouse at 4.4 mg/kg, po administered as single dose measured at 0.5 hrs by LC-MS/MS analysis. The format is ADME, organism-based.
Data set [13] in a line: Plasma concentration in ICR mouse at 8.9 mg/kg, po administered as single dose measured at 0.5 hrs by LC-MS/MS analysis. It counts as ADME, organism-based.
Data set [14] in a line: Plasma concentration in ICR mouse at 17.7 mg/kg, po administered as single dose measured at 0.5 hrs by LC-MS/MS analysis. The format is ADME, organism-based.
Data set [15] in a line: Plasma concentration in ICR mouse at 0.7 mg/kg, po administered as single dose measured at 0.5 hrs by LC-MS/MS analysis. It counts as ADME, organism-based.
A short description of data set [16]: Plasma concentration in ICR mouse at 1.4 mg/kg, po administered as single dose measured at 0.5 hrs by LC-MS/MS analysis. The format is ADME, organism-based.
Data set [17] can be described thus: Plasma concentration in ICR mouse at 2.9 mg/kg, po administered as single dose measured at 0.5 hrs by LC-MS/MS analysis. The format is ADME, organism-based.
Data set [18] in a line: Plasma concentration in ICR mouse at […], po administered as single dose measured at 0.5 hrs by LC-MS/MS analysis. It counts as ADME, organism-based.
Data set [19] is described as follows: Oral bioavailability in human in fed state at 560 mg administered daily. The format is ADME, organism-based. As to conditions: in vivo.
Data set [20] in a line: Oral bioavailability in human in fasting state at 560 mg administered daily. It counts as ADME, organism-based. Particulars: in vivo.

As to `C=CC(=O)N1CC(C2CCNc3c(C(N)=O)c(-c4ccc(Oc5ccccc5)cc4)nn32)C1` (stereo not given), the half-life in data set [1] is 15.6 min. This compound also showed a Vd in data set [2] of 2.85 L/kg. For the same compound, in data set [3], the clearance came to 169 mL/min/kg. Besides, the Tmax in [4] turned out to be 140 min. In data set [5], this compound had a Cmax of 10.4 ng/mL. The compound also returned an AUC in data set [6] of 50.3 ng·h/mL. Besides, in [7], the bioavailability was 8.6%.

`C=CC(=O)Nc1ccccc1C1CCNc2c(C(N)=O)c(-c3ccc(OCC4CC4)cc3)nn21` (stereo not given) gave a half-life in data set [1] of 24 min. This compound also yielded a Vd in data set [2] of 1.01 L/kg. In addition, the clearance in data set [3] turned out to be 82.3 mL/min/kg. For the same compound, the Tmax in data set [4] is 19.8 min. Further, the Cmax in [5] stood at 202 ng/mL. In data set [6], this compound showed an AUC of 344 ng·h/mL. The bioavailability in data set [7] was determined as 34%.

Take `C=CC(=O)N1CCC([C@@H]2CCNc3c(C(N)=O)c(-c4ccc(Oc5ccccc5)cc4)nn32)CC1` [ZANUBRUTINIB]: the values for the Cmax in data set [8] and in data set [5] were 4800 nM and 235 ng/mL, respectively. For the same compound, in [9], the concentration at 2 h was 470 nM. Moreover, the concentration at 4 h in data set [10] was determined as 90 nM. Further, the concentration at 0.5 h is 70 nM in data set [11]; 180 nM in [12]; 350 nM in [13]; 500 nM in data set [14]; 40 nM in data set [15]; 110 nM in data set [16]. Moreover, the results for the concentration at 0.5 h in [17] and in data set [18] were 320 nM and 590 nM, respectively. For the same compound, the volume of distribution (Vd) in data set [2] turned out to be 2.32 L/kg. Also, in [3], the clearance was found to be 76.8 mL/min/kg. The Tmax in data set [4] was 19.8 min. This compound had an AUC in data set [6] of 257 ng·h/mL. For the same compound, in data set [7], the bioavailability is 23.6%.

`C=CC(=O)NCC1CCNc2c(C(N)=O)c(-c3ccc(Oc4ccccc4)cc3)nn21` (stereo not given) gave a half-life in data set [1] of 12.6 min. This compound returned a Vd in data set [2] of 1.19 L/kg. This compound also showed a clearance in [3] of 93.9 mL/min/kg. Further, the time of peak concentration (Tmax) in data set [4] was determined as 19.8 min. Moreover, the Cmax in data set [5] came out at 19.6 ng/mL. This compound also yielded an AUC in data set [6] of 51.1 ng·h/mL. For the same compound, the bioavailability in data set [7] turned out to be 5.7%.

As to `C=CC(=O)N1CCC[C@@H](n2nc(-c3ccc(Oc4ccccc4)cc3)c3c(N)ncnc32)C1` [IBRUTINIB], the bioavailability in data set [19] is 8.4%; in data set [20], 3.9%.

For orientation: half-life means the time needed for the level to fall by half in the phase considered. High values mean slow decline, low ones rapid decline. A word on the Vd: it is the apparent volume that relates the amount in the body to the concentration in plasma or blood. By clearance is commonly meant the rate of elimination divided by the concentration. By Tmax is commonly meant the time at which the peak concentration occurs. In general, Cmax refers to the peak of the concentration-time curve. By AUC is commonly meant concentration integrated over time. Read a high AUC as more exposure. As a reminder, the bioavailability is dose-corrected exposure relative to a reference, in per cent.

For the origin of these results see ChEMBL document CHEMBL4414549 (J Med Chem, 2019).
